A short description of the data set: Pharmacokinetic analysis in male SD rats after IV bolus, plasma by LC-MS/MS. It is filed as in vivo. The settings on record: rat, IV bolus 0.04 mg/kg; for Cmax / half-life: 3 rats per group; for half-life: read-out: T1/2, ± SD (converted); for MRT inf: read-out: MRT0-Inf (Mean Residence Time); for MRT last: read-out: MRT0-last (Mean Residence Time); for Vd: read-out: Vdss (apparent volume of distribution at equilibrium); for AUC(0-t): time zero to last measurable concentration; for AUC(0-inf): zero up to ∞. The procedure:
Each of the tested compounds was administered as an IV bolus (3 rats per group) at a dose 0.04 mg/kg. Rats were fasted at least 12 hours prior to administration of test compound. […] Blood samples were processed for plasma and analyzed by LC-MS/MS for the following pharmacokinetic parameters: Cmax, T1/2, CL, Vdss, AUC0-last, AUC0-∞, MRT0-last, and MRT0-∞.

Consider `[2H]C([2H])([2H])C(O)(C([2H])([2H])[2H])C([2H])([2H])n1c(COCC)nc2c(N)nc3ccccc3c21` [Compound 113, 1-(4-amino-2-(ethoxymethyl)-1H-imidazo[4,5-c]quinolin-1-yl)-2-(methyl-d3)propan-1,1,3,3,3-d5-2-ol], for which the Cmax amounted to 44.5 ± 14.2 ng/mL, the half-life is 1.97 ± 1.76 h, the MRT inf was found to be 1.79 ± 0.884 h and the MRT last is 1.26 h. The Vd was 2.61 ± 0.732 L/kg, the AUC(0-t) was 49.3 ± 8.99 ng·h/mL and the total exposure AUC(0-inf) was determined as 53 ± 11.2 ng·h/mL.

As for `CCOCc1nc2c(N)nc3ccccc3c2n1CC(C)(C)O` [Resiquimod, 1-(4-Amino-2-(ethoxymethyl)-1H-imidazo[4,5-c]quinolin-1-yl)-2-methylpropan-2-ol, reference compound], the Cmax amounted to 43.8 ± 10.9 ng/mL, the half-life is 1.03 ± 1.72 h, the MRT inf turned out to be 1.37 ± 0.139 h and the MRT last is 1.09 ± 0.081 h. The Vd worked out at 2.46 ± 0.361 L/kg, the AUC(0-t) came out at 42.1 ± 6.04 ng·h/mL and the AUC(0-inf) was 45.9 ± 6.67 ng·h/mL.

`[2H]C([2H])([2H])C(O)(Cn1c(COCC)nc2c(N)nc3ccccc3c21)C([2H])([2H])[2H]` [Compound 104, 2-((4-amino-2-(ethoxymethyl)-1H-imidazo[4,5-c]quinolin-1-yl)methyl)propan-1,1,1,3,3,3-d6-2-ol]: the Cmax was 40.3 ± 10.7 ng/mL, the half-life was 1.85 ± 1.05 h, the MRT inf worked out at 2.1 ± 0.663 h and the MRT last was found to be 1.5 ± 0.328 h. Also, the Vd amounted to 2.62 ± 0.516 L/kg, the AUC(0-t) was determined as 56.2 ± 6.51 ng·h/mL and the area under the curve AUC(0-inf) was 60.4 ± 7.71 ng·h/mL.

`[2H]C([2H])([2H])C([2H])([2H])OCc1nc2c(N)nc3ccccc3c2n1CC(C)(C)O` [Compound 107, 1-(4-amino-2-((ethoxy-d5)methyl)-1H-imidazo[4,5-c]quinolin-1-yl)-2-methylpropan-2-ol]: the peak level (Cmax) was 40.1 ± 8.82 ng/mL, the half-life is 2.41 ± 1.71 h, the MRT inf was found to be 2.43 ± 0.735 h and the MRT last stood at 1.66 ± 0.151 h. Besides, the Vd was 3.23 ± 0.581 L/kg, the AUC(0-t) was 54.8 ± 6.02 ng·h/mL and the AUC(0-inf) was found to be 59.4 ± 8.16 ng·h/mL.
